Key:
[1] = system: P1534J lymphatic leukemia; assay: P1534J lymphatic leukemia tumor model; type: in vivo, mice (DBA/2); conditions: IP, Days 1,5,9
Text: P1534J--The P1534J lymphocytic leukemia (solid form) was obtained in 1973 from the Jackson Laboratory (Bar Harbor, Me.). First passage tumor was stored in liquid nitrogen using standard techniques. Subsequent replenishment of the tumor bank with this tumor was accomplished from first passage tumor. The transplanted tumor was re-established from the tumor bank every six months or as needed. The tumor is maintained by serial passage once a week in DBA/2 mice (Charles River; Wilmington, Mass.).
(§1) The tumor was removed from passage animals and minced into 1 to 3 mm square fragments using sterile techniques. Tumor pieces were checked for sterility using both Antibiotic Medium 1 and Brain Heart Infusion (Difco; Detroit, Mich.). Recipient mice were shaved and tumor pieces were implanted subcutaneously in the axillary region by trocar. Drug therapy on the appropriate schedule was initiated on the day after tumor implant. The compound was dissolved in saline for all experiments. All animals were weighed at the beginning and end of drug treatment. Food and water were provided ad libitum. On days 10 to 12, two dimensional measurements (width and length) of all tumors were taken using vernier calipers. Tumor weights were calculated from these measurements using the following formula:
(§2) Tumor Weight (mg)=Tumor Length (mm)×Tumor Width (mm)^2 /2
(§3) For all data, the tumor weight was rounded to the nearest tenth of a gram for analysis. No group is included in the analysis for therapeutic activity in which deaths attributable to drug toxicity exceeded 30 percent of the treated group.
(§4) In Table 3 which follows, column 1 gives the example number of the compound tested; column 2 provides the tumor system; column 3, the dose level; column 4, the route administered; column 5, the dosage schedule; column 6, the percent inhibition of the tumor; and column 7, the toxic deaths observed prior to completion of the study.

[2] = system: L1210V lymphocytic leukemia; assay: L1210V Lymphocytic Leukemia Tumor System; type: in vivo, mice; conditions: for Indefinite Survivors: 45 day survivors; for Toxic Deaths: deaths/mice in group
Experimental: The study testing the efficacy of these compounds against L1210V leukemia was initiated by an IP inoculation of 1×10^6 cells. Treatment was begun 24 hours after inoculation. The response to therapy was determined by comparing the mean life span of the ten treated animals to that of the ten control animals; prolongation of life in the treated animals beyond that of controls is expressed as a percentage. In the Table, column 1 gives the example number of the compound tested; column 2, the experiment number; column 3, the dose level of the compound in mg/kg; column 4, the route of administration; column 5, the dosage schedule, that is, the days on which the compound was administered to the mice; column 6, the average increase in life span of the treated mice as compared to the control mice; column 7, the toxic deaths over the number of mice in each group; and column 8, the indefinite survivors, that is, the number of 45 day survivors in each group.

[3] = system: 6C3HED, CA755, P1534J, X5563; assay: additional tumor test systems (summary statement); type: in vivo, mice; conditions: systems include 6C3HED
Text: These systems include the 6C3HED lymphosarcoma, also known as the Gardner lymphosarcoma (6C3HED); the CA-755 adenocarcinoma (CA755); the P1534J lymphatic leukemia (P1534J); and the X5563 plasma cell myeloma (X5563). Each of these systems is described in detail below.
as §1, with “formula: […]” for “formula:”

[4] = system: X5563 plasma cell myeloma; assay: X5563 plasma cell myeloma tumor model; type: in vivo, mice (C3H); conditions: IP, Days 1,5,9
Text: X5563 Myeloma--the tumor is maintained in C3H mice.
as §1, §2, §3, §4

[5] = Experiment 1, 1.25 mg/kg, IP, Days 1,5,9
[6] = Experiment 1, 2.5 mg/kg, IP, Days 1,5,9
[7] = Experiment 1, 5.0 mg/kg, IP, Days 1,5,9
[8] = Experiment 1, 10.0 mg/kg, IP, Days 1,5,9
[9] = Experiment 1, 20.0 mg/kg, IP, Days 1,5,9
[10] = Experiment 2, 0.5 mg/kg, IP, Daily for 10 Days
[11] = Experiment 2, 1.0 mg/kg, IP, Daily for 10 Days
[12] = Experiment 2, 2.0 mg/kg, IP, Daily for 10 Days
[13] = Experiment 3, 25.0 mg/kg, IP, Day 1 only
[14] = Experiment 3, 50.0 mg/kg, IP, Day 1 only
[15] = Experiment 3, 100.0 mg/kg, IP, Day 1 only
[16] = Experiment 3, 200.0 mg/kg, IP, Day 1 only
[17] = Experiment 4, 0.5 mg/kg, PO, Daily for 10 days
[18] = Experiment 4, 1.0 mg/kg, PO, Daily for 10 days
[19] = Experiment 4, 2.0 mg/kg, PO, Daily for 10 days
[20] = Experiment 4, 4.0 mg/kg, PO, Daily for 10 days
[21] = Experiment 5, 0.5 mg/kg, IP, Daily for 9 days
[22] = Experiment 5, 1.0 mg/kg, IP, Daily for 9 days
[23] = Experiment 5, 2.0 mg/kg, IP, Daily for 9 days
[24] = Experiment 5, 4.0 mg/kg, IP, Daily for 9 days

Nc1ccn(C2O[C@H](CO)[C@@H](O)C2(F)F)c(=O)n1 (stereo partly drawn) [Example 1, 1-(4-Amino-2-oxo-1H-pyrimidin-1-yl)-2-desoxy-2,2-difluororibose]
Percent Inhibition of Tumor ([1]; 1.25 mg/kg): 8%
Toxic Deaths ([1]; 1.25 mg/kg): 0/10
Percent Inhibition of Tumor ([1]; 2.5 mg/kg): 30%
Toxic Deaths ([1]; 2.5 mg/kg): 0/10
Percent Inhibition of Tumor ([1]; 5.0 mg/kg): 47%
Toxic Deaths ([1]; 5.0 mg/kg): 0/10
Percent Inhibition of Tumor ([1]; 10.0 mg/kg): 71%
Toxic Deaths ([1]; 10.0 mg/kg): 2/10
Percent Inhibition of Tumor ([1]; 20.0 mg/kg): 92%
Toxic Deaths ([1]; 20.0 mg/kg): 1/10
Percent Increase Life Span [2, 5]: 50%
Indefinite Survivors [2, 5]: 0
Toxic Deaths [2, 5]: 0/10
Percent Increase Life Span [2, 6]: 60%
Indefinite Survivors [2, 6]: 0
Toxic Deaths [2, 6]: 0/10
Percent Increase Life Span [2, 7]: 66%
Indefinite Survivors [2, 7]: 0
Toxic Deaths [2, 7]: 0/10
Percent Increase Life Span [2, 8]: 66%
Indefinite Survivors [2, 8]: 0
Toxic Deaths [2, 8]: 1/10
Percent Increase Life Span [2, 9]: 60%
Indefinite Survivors [2, 9]: 0
Toxic Deaths [2, 9]: 0/10
Percent Increase Life Span [2, 10]: 13%
Indefinite Survivors [2, 10]: 0
Toxic Deaths [2, 10]: 0/10
Percent Increase Life Span [2, 11]: 0%
Indefinite Survivors [2, 11]: 0
Toxic Deaths [2, 11]: 0/10
Percent Increase Life Span [2, 12]: 0%
Indefinite Survivors [2, 12]: 0
Toxic Deaths [2, 12]: 0/10
Percent Increase Life Span [2, 13]: 23%
Indefinite Survivors [2, 13]: 0
Toxic Deaths [2, 13]: 0/10
Percent Increase Life Span [2, 14]: 30%
Indefinite Survivors [2, 14]: 0
Toxic Deaths [2, 14]: 0/10
Percent Increase Life Span [2, 15]: 26%
Indefinite Survivors [2, 15]: 0
Toxic Deaths [2, 15]: 0/10
Percent Increase Life Span [2, 16]: 34%
Indefinite Survivors [2, 16]: 0
Toxic Deaths [2, 16]: 0/10
Percent Increase Life Span [2, 17]: 8%
Indefinite Survivors [2, 17]: 0
Toxic Deaths [2, 17]: 0/10
Percent Increase Life Span [2, 18]: 15%
Indefinite Survivors [2, 18]: 0
Toxic Deaths [2, 18]: 0/10
Percent Increase Life Span [2, 19]: 18%
Indefinite Survivors [2, 19]: 0
Toxic Deaths [2, 19]: 1/10
Percent Increase Life Span [2, 20]: 2%
Indefinite Survivors [2, 20]: 0
Toxic Deaths [2, 20]: 4/10
Percent Increase Life Span [2, 21]: 74%
Indefinite Survivors [2, 21]: 0
Toxic Deaths [2, 21]: 0/10
Percent Increase Life Span [2, 22]: 104%
Indefinite Survivors [2, 22]: 0
Toxic Deaths [2, 22]: 0/10
Percent Increase Life Span [2, 23]: 136%
Indefinite Survivors [2, 23]: 0
Toxic Deaths [2, 23]: 0/10
Percent Increase Life Span [2, 24]: 44%
Indefinite Survivors [2, 24]: 0
Toxic Deaths [2, 24]: 0/10
activity in additional tumor test systems (in words) [3]: demonstrated activity in additional tumor test systems
Percent Inhibition of Tumor ([4]; 1.25 mg/kg): 11%
Toxic Deaths ([4]; 1.25 mg/kg): 1/10
Percent Inhibition of Tumor ([4]; 2.5 mg/kg): 52%
Toxic Deaths ([4]; 2.5 mg/kg): 1/10
Percent Inhibition of Tumor ([4]; 5.0 mg/kg): 89%
Toxic Deaths ([4]; 5.0 mg/kg): 0/10
Percent Inhibition of Tumor ([4]; 10.0 mg/kg): 98%
Toxic Deaths ([4]; 10.0 mg/kg): 0/10
Percent Inhibition of Tumor ([4]; 20.0 mg/kg): 100%
Toxic Deaths ([4]; 20.0 mg/kg): 0/10
